Laboratory results published in patent US20230295163A1, “TETRACYCLIC DERIVATIVE, METHOD FOR PREPARING SAME AND USE THEREOF IN MEDICINE” (ZHEJIANG HISUN PHARMACEUTICAL CO., LTD., priority 2020, published 2023).
Where two headings read alike, the source gives them in different places.

Legend:
[1] = ICR mouse pharmacokinetic research; format: in vivo; details: plasma, po, ICR mice, intragastric administration 5 mg/kg
Experimental: ICR mice were used as test animals. The drug concentrations in plasma at different time points of the compounds in Comparative Example 1 and Example 17 of the present disclosure intragastrically administered to the mice were determined by LC/MS/MS method, to study the pharmacokinetic characteristics of the compounds of the present disclosure in mice.
Preparation for intragastric administration: An appropriate amount of the compound to be tested was weighed, added with an appropriate amount of DMSO: PEG 200=5%: 95% (v/v), shaken by vortex, and prepared into a solution with a final concentration of 0.5 mg/mL.
Intragastric administration group: After fasting overnight, the mice were intragastrically administered at a dose of 5 mg/kg and a volume of 10 mL/kg, and fed 4 h after the administration.
Intragastric administration group: About 100 μL of blood was collected through the orbital vein before administration and at 0.25 h, 0.5 h, 1 h, 2 h, 4 h, 8 h, 12 h and 24 h after administration.
The whole blood sample was put in an EDTA-K2 anticoagulant tube. The plasma was separated by centrifugation at 1500 g for 10 min. The collected upper layer plasma was stored at −40 to −20° C. before analysis.
The content of the compound to be tested in mouse plasma was determined by LC-MS/MS after the compound was intragastrically administered.

NCI-H358 cells = assay: Inhibition of NCI-H358 cell proliferation (CellTiter-Glo); format: cell-based, human; details: 120 h of culture, read-out: IC50 inhibiting NCI-H358 cell proliferation
Experimental: The following method was used to determine the effect of the compounds of the present disclosure on the proliferation of NCI-H358 cells. NCI-H358 cells (containing KRAS G12C mutation) were purchased from the Cell Resource Center, Shanghai Institutes for Biology Sciences, Chinese Academy of Sciences, and cultured in RPMI 1640 medium containing 10% fetal bovine serum, 100 U penicillin, 100 μg/mL streptomycin and 1 mM sodium pyruvate. Cell viability was determined by CellTiter-Glo® Luminescent Cell Viability Assay Kit (Promega, Cat. No. G7573).
The experiment was conducted according to the steps in the kit instruction, which is briefly described as follows: The test compound was first prepared with DMSO into a 10 mM stock solution, which was then diluted with medium into a test sample with a final concentration of the compound ranging from 1000 nM to 0.015 nM Cells in the logarithmic growth phase were inoculated into a 96-well cell culture plate at a density of 800 cells per well, cultured overnight at 37° C. in a 5% CO2 incubator, and then added with the test compound for 120 h of culture. After the culture was completed, 50 μL of CellTiter-Glo detection solution was added to each well, shaken for 5 min and left to stand for 10 min. Subsequently, the luminescence value of the sample in each well was read by a microplate in a luminescence mode. The percentage of inhibition rate of the compounds at each concentration was calculated by comparing with the value of the control group (0.3% DMSO). Then a nonlinear regression analysis on the log concentration-inhibition rate of the compounds was performed by the software GraphPad Prism 5 to obtain the IC50 value of the compound inhibiting NCI-H358 cell proliferation. Table 2 IC50 data of compounds of the present disclosure inhibiting NCI-H358 cell proliferation Compound number IC50(nM)

[2] = molecular target: T1, recombinant human KRAS G12C protein (Homo sapiens, UniProt P01116, G12C); assay: Covalent binding ability to KRAS G12C protein (LC-MS); details: 3 μM, 5 min
T1 construct: The recombinant human KRAS G12C protein (aa1-169)
T1 sequence (P01116 1-169 isoform P01116-2 G12C): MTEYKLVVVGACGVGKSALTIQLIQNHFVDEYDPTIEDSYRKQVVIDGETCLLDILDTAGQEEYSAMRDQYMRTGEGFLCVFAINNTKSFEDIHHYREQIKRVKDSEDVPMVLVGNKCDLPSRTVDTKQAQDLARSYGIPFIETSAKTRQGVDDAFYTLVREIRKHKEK
Experimental: The following method was used to determine the covalent binding ability of the compounds of the present disclosure to recombinant human KRAS G12C protein under in vitro conditions.
The experimental procedure is briefly described as follows: The recombinant human KRAS G12C protein (aa1-169) was prepared with a reaction buffer (20 mM HEPES, 150 mM NaCl, 1 mM MgCl2, 1 mM DTT) at a concentration of 4 μM for later use. The test compound was prepared with DMSO into a 10 mM stock solution, which was then diluted with the reaction buffer for later use. First, 1.5 μL of the test compound diluted with the reaction buffer was added to each well (a final concentration of the reaction system was […]), then added with 23.5 μL of the reaction buffer, mixed well, then added with 25 μL of 4 μM recombinant human KRAS G12C protein for 5 min of incubation at room temperature, and added with 5 μL of acetic acid to stop the reaction. The samples were transferred to injection vials. The ratios of covalent binding between the test compounds and KRAS G12C protein were detected by Agilent 1290/6530 instrument, and the samples were analyzed in a liquid chromatography column (XBridge Protein BEH C4, 300 Å, 3.5 μm, 2.1 mm×50 mm). In the detection process, mobile phase A was 0.1% formic acid aqueous solution, mobile phase B was acetonitrile, the mobile phase elution program was as follows: mobile phase A was kept at 95% at 0-0.5 min, changed to 30% at 2.5 min for 0.5 min, and changed to 95% at 3.1 min for 1.9 min; and flow rate was 0.5 mL/min. Finally, the data was analyzed by MassHunter Workstation Software Bioconfirm Version B.08.00 to obtain the covalent binding rate between the test compound at a concentration of 3 μM and KRAS G12C protein under 5 min of incubation.

[3] = system: p-ERK1/2 in NCI-H358 cells; assay: Inhibition of p-ERK1/2 in NCI-H358 cells (HTRF kit); format: cell-based; details: Homo sapiens, hEGF 5 nM stimulation, read-out: IC50 inhibiting p-ERK1/2 in NCI-H358 cells
Excerpt: The following method was used to determine the inhibitory activity of the compounds of the present disclosure on p-ERK1/2 in NCI-H358 cells. In this method, Advanced phospho-ERK1/2 (Thr202/tyr204) kit (Cat. No. 64AERPEH) from Cisbio company was used, and the detailed experimental operation can be referred to the kit instruction. NCI-H358 cells (containing KRAS G12C mutation) were purchased from the Cell Resource Center, Shanghai Institutes for Biology Sciences, Chinese Academy of Sciences.
The experimental procedure is briefly described as follows: NCI-H358 cells were cultured in RPMIH 1640 complete medium containing 10% fetal bovine serum, 100 U penicillin, 100 μg/mL streptomycin and 1 mM sodium pyruvate. […] The 96-well plate was placed on ice for half an hour of lysis, and then the lysate was detected according to the instruction of the Advanced phospho-ERK1/2 (Thr202/tyr204) kit. Finally, the fluorescence intensity of each well at emission wavelengths of 620 nm and 665 nM was measured on a microplate reader in TF-FRET mode at an excitation wavelength of 304 nm, and the ratio of the fluorescence intensity of each well at 665/620 was calculated. The percentage of inhibition rate of the test compounds at each concentration was calculated by comparing with the fluorescence intensity of the control group (0.1% DMSO). […]

IC50 (NCI-H358 cells)	Covalent binding rate (%) [2]	IC50 (NCI-H358 cells; Homo sapiens, NCI-H358, 120 h)	other results	Structure (SMILES)
–	–	–	AUC(0-inf) ([1]; read-out: Area under curve AUC0-∞): 4180 ng·h/mL; Cmax ([1]; read-out: Blood concentration Cmax): 928 ng/mL; half-life ([1]; read-out: Half-life T½ (converted)): 1.95 h	C=CC(=O)N1C[C@@H]2C(=O)N(C)c3c(c4cc(Cl)c(-c5c(O)cccc5F)nc4n(-c4c(C)ccnc4C(C)C)c3=O)N2C[C@H]1C (atropisomer, axis not shown) [Comparative Example 1, reference compound]
98.5 nM	–	–	–	C=CC(=O)N1C[C@@H]2C(=O)N(C)c3c(c4cc(Cl)c(-c5c(O)cccc5F)nc4n(-c4c(SC)ccnc4C(C)C)c3=O)N2C[C@H]1C [Compound 18]
–	45.5%	73.4 nM	–	C=CC(=O)N1C[C@@H]2C(=O)N(C)c3c(c4cc(F)c(-c5nc(N)ccc5Cl)nc4n(-c4c(C)ccnc4C(C)C)c3=O)N2C[C@H]1C [Compound 10, (2R,4aR)-3-acryloyl-10-(6-amino-3-chloropyridin-2-yl)-11-fluoro-8-(2-isopropyl-4-methylpyridin-3-yl)-2,6-dimethyl-2,3,4,4a,6,8-hexahydro-1H-pyrazino [1′,2′:4,5]pyrazino[2,3-c][1,8] naphthyridine-5,7-dione]
39.9 nM	38.5%	–	IC50 [3]: 93 nM	C=CC(=O)N1C[C@@H]2C(=O)N(C)c3c(c4cc(Cl)c(-c5c(O)cccc5F)nc4n(-c4c(SC)ccnc4C(C)C)c3=O)N2C[C@H]1C [Compound 16, (2R,4aR)-3-acryloyl-11-chloro-10-(2-fluoro-6-hydroxyphenyl)-8-(2-isopropyl-4-(methylthio)pyridin-3-yl)-2,6-dimethyl-2,3,4,4a,6,8-hexahydro-1H-pyrazino [1′,2′:4,5]pyrazino[2,3-c][1,8] naphthyridine-5,7-dione]
–	42.5%	67.2 nM	–	C=CC(=O)N1C[C@@H]2C(=O)N(C)c3c(c4cc(F)c(-c5ccc(F)c6sc(N)nc56)nc4n(-c4c(C)ccnc4C(C)C)c3=O)N2C[C@H]1C [Compound 7, (2R,4aR)-3-acryloyl-10-(2-amino-7-fluorobenzo[d]thiazol-4-yl)-11-fluoro-8-(2-isopropyl-4-methylpyridin-3-yl)-2,6-dimethyl-2,3,4,4a,6,8-hexahydro-1H-pyrazino [1′,2′:4,5]pyrazino[2,3-c][1,8]naphthyridine-5,7-dione]
